Test results reported in ChEMBL document CHEMBL1201862, “PubChem BioAssay data set” (2004).
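Values below derive from 48-hour exposures of cells grown in 96-well plates, with endpoints linearly interpolated between the two concentrations bracketing the appropriate inhibition level. At the GI50, growth is halved.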 The source made the active and inactive calls. Rule as the data show it: active = GI50 up to about 1.1 µM and inactive = higher.

Legend:
Assay in all cases: inhibition of tumour cell growth, NCI panel, 48 h
[1] = test system: DMS-114
[2] = test system: DMS-273
[3] = test system: HOP-18
[4] = test system: KM-20L2
[5] = test system: LXFL 529
[6] = test system: M19-MEL
[7] = test system: RXF 631
[8] = test system: SNB-78
[9] = test system: XF498

Measured: GI50

CCOC(=O)CC(C)C1(C=O)CCCCC1=O (stereo not given)
inactive: [1] 23 µM | [2] 21.1 µM | [3] > 100 µM | [4] > 100 µM | [5] > 100 µM | [6] > 100 µM | [7] > 100 µM | [8] > 100 µM | [9] > 100 µM

COc1ccc2c(c1)CCC1C3(CCCC21C)OCCO3 (stereo not given)
inactive: [2] 17.5 µM | [3] 23.1 µM | [4] 19.7 µM | [5] 18.2 µM | [6] 18.6 µM | [7] 23.9 µM | [8] 19.4 µM

CC(=O)O[C@H]1CCC2[C@@H]3CCC4Nc5[nH]ncc5C[C@]4(C)C3CC[C@@]21C (stereo not given in full)
inactive: [1] 35.8 µM | [2] 50.7 µM | [3] > 100 µM | [4] 28.1 µM | [5] 28.5 µM | [6] 32.7 µM | [7] > 100 µM | [9] 26.2 µM

CNC(=O)NCCCCC(NC(C)=O)C(=O)NCc1ccccc1 (stereo not given)
inactive: [1] > 100 µM | [2] > 100 µM | [4] > 100 µM | [5] > 100 µM | [6] > 100 µM | [7] > 100 µM | [8] > 100 µM | [9] > 100 µM

COc1ccc(CN2C(=O)[C@@H]3Cc4c(OC)c(C)c(OC)c(OC)c4[C@H](/C2=C\c2cc(OC)c(OC)c(C)c2OC)N3C(=O)OC(C)C)cc1
inactive: [1] 7.38 µM | [2] 19.3 µM | [3] > 100 µM | [4] > 100 µM | [5] 7.24 µM | [6] 42.7 µM | [7] > 100 µM

CC1(C)CC(=O)C(C(=O)Nc2cccs2)=C(O)C1
inactive: [2] 25.2 µM | [3] 21.6 µM | [4] 38.2 µM | [5] 31.8 µM | [6] 41.2 µM | [7] 36.5 µM | [8] 36.1 µM | [9] 43 µM

CC/C(C)=C1\CCC(CN(C)C)C1=O (stereo not given)
inactive: [1] 23.4 µM | [2] 18.9 µM | [3] 18.2 µM | [4] 21.7 µM | [5] 16.3 µM | [6] 18.1 µM | [7] 19.9 µM | [8] 24.8 µM | [9] 19.7 µM

Cc1cccc2[s+]snc12
inactive: [1] > 58.5 µM | [2] > 100 µM | [3] > 100 µM | [4] > 100 µM | [5] 36.1 µM | [6] > 60.3 µM | [7] 19.7 µM | [8] > 100 µM | [9] > 100 µM

CN(C)C(=S)/N=c1\ssc(=S)n1C1CCCCC1
inactive: [1] 13.9 µM | [2] 28.2 µM | [3] > 100 µM | [4] 40.5 µM | [5] 13.2 µM | [6] 18.7 µM | [7] 19.5 µM | [9] 19.4 µM

CC(=O)CC(=O)OC1CC(C)CCC1C(C)C (stereo not given)
inactive: [1] 37.2 µM | [2] 41.9 µM | [5] 89.5 µM | [6] 34.6 µM | [7] > 100 µM | [8] > 100 µM | [9] > 100 µM
